Measurements: US10578610B2, “Peptide regulators of mitochondrial fusion and methods of use” (priority 2016, dated 2020)
Ends that are not written are not given here.

Legend:
[1] = system: mitochondrial mitofusins in WT MEFs; assay: Confocal localization of FITC-labeled TAT-minipeptides; format: cell-based, murine
Protocol: The above results support the premise that TAT-conjugated Mfn2 minipeptides affect mitochondrial fusion by modulating Mfn1 and Mfn2 conformation according to the dynamic structure model depicted in FIGS. 3A-3C. Additional studies were performed to validate this mechanism of action using the minipeptide-Mfn2 binding assay procedure. Confocal localization of FITC-labeled TAT-minipeptides in WT MEFs and Mfn null MEFs (Mfn1/Mfn2 DKO) was used for analysis of interaction between the minipeptides and mitochondrial mitofusins. Mitochondria were stained with MitoTracker Orange; nucleus was stained with Blue Hoechst. Line-scans were generated for the confocal photographs.
Thus, cell-internalized TAT-conjugated Mfn2 HR1 minipeptides bind specifically to mitochondrial mitofusins.

Mfn2 KO MEFs = assay: TAT-minipeptides in a cell model of Mfn2 deficiency; format: cell-based, murine; conditions: 1 μM or 5 μM, 24 hours, data not shown
From the text: Enhancing Mfn1- or Mfn2-mediated mitochondrial fusion with TAT-367-384 Gly has potential to alleviate mitochondrial morphological abnormalities like those evoked in CMT2A caused by nonsense or damaging non-synonymous Mfn2 mutations (Bombelli et al., 2014, JAMA Neurol, 71:1036-1042). It was reasoned that mitochondrial morphology would improve if endogenous normal Mfn1 or Mfn2 were assisted into their active conformations in which the D2 region is extended and/or available for interaction with the D2 region of a second Mfn protein (e.g., FIGS. 1B and 3B). This notion was tested in Mfn2 KO MEFs, a cell model of Mfn2 deficiency. WT MEFs and Mfn2 KO MEFs were treated with 1 μM or 5 μM TAT-367-384Gly peptide or TAT-398-418Gly peptide.

[2] = system: Mfn null MEFs expressing Mfn2 K109A or Mfn2 AA; assay: TAT-minipeptides in Mfn null MEFs expressing Mfn2 mutants; format: cell-based, murine; conditions: for mitochondrial morphology: Mfn null MEFs expressing Mfn2 AA
From the text: The efficacy of the minipeptides to correct mitochondrial abnormalities in Mfn null MEFs was further evaluated. In this experiment, several Mfn2 mutants having well-characterized and diverse functional profiles were introduced into Mfn null MEFs. As shown above, mitochondria of MEFs lacking Mfn1 and Mfn2 are highly fragmented. Adenoviral reintroduction of WT Mfn2 corrected dysmorphology in Mfn null MEFs and was required for TAT minipeptides to alter mitochondrial fusion in these cells (FIGS. 12A-12B). By contrast, adenoviral expression of mouse Mfn2 K109A, a GTPase defective mutant (Detmer and Chan, 2007, J Cell Biol, 176:405-414), had no effect on mitochondrial fragmentation in Mfn null MEFs. […] Mitochondrial morphometry in Mfn null MEFs expressing fusion-impaired Mfn2 EE, which has glutamate substitutions to mimic phosphorylation at Mfn2 T111 and […], was more variable (FIG. 12A-12B).

human Mfn2 = molecular target: T1, human Mfn2 (Homo sapiens, UniProt O95140); assay: Mfn2 GTPase assay; format: biochemical; parameters: purchased OriGene; conditions: 1 M peptide 15 minutes, then 0.5 mM GTP 1 hour 37° C.; data not shown
T1 sequence (O95140 1-757): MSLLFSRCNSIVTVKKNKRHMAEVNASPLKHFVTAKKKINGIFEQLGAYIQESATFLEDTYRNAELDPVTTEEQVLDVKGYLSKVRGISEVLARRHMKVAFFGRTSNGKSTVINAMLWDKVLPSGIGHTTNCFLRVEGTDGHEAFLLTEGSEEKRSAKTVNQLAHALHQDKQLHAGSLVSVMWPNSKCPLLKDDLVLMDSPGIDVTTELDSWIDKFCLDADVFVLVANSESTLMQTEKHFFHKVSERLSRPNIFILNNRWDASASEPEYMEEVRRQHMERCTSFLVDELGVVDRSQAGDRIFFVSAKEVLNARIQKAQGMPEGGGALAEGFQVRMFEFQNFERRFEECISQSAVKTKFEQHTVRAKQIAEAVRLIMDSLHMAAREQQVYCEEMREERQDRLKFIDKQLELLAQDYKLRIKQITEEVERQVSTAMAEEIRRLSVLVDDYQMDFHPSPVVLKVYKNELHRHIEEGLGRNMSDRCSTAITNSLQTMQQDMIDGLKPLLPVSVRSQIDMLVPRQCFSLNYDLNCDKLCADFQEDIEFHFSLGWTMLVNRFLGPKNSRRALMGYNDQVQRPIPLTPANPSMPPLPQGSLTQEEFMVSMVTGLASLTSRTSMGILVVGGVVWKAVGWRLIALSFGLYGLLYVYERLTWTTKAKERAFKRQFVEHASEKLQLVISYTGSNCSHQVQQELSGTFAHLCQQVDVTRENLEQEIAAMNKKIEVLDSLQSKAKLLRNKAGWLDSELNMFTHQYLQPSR
Protocol: Minipeptide effects on Mfn2 GTPase activity were evaluated using a modification of a previously described method (Qi X et al., 2013, J Cell Sci 126:789-802). Briefly, recombinant Mfn2 (100 ng, OriGene, Rockville, Md.) was incubated with […] control TAT peptide, TAT-367-384Gly, or TAT-398-418Gly for 15 minutes prior to addition of 0.5 mM GTP for 1 hour at 37° C. GTPase activity relative to no-peptide control was measured using a colorimetric GTPase assay kit (Novus Biologicals, Littleton, Colo.) following the manufacturer's instructions.

[3] = Mfn null MEFs expressing only Mfn2 K109A

Sequence | localization of FITC-labeled TAT-peptide to mitochondria [1] | mitochondrial aspect ratio (Mfn2 KO MEFs) | mitochondrial morphology [2] | Mfn2 GTPase activity (human Mfn2) | mitochondrial aspect ratio / mitochondrial pathology [2, 3] | mitochondrial clumping [2, 3]
QDRLKFIDKQGELLAQDYKLRGGYGRKKRRQRRR [TAT-398-418Gly] | decorated mitochondria | exaggerated mitochondrial shortening | mitochondrial shortening | without altering Mfn2 GTPase activity | – | –
QIAEAVRGIMDSLHMAARGGYGRKKRRQRRR [TAT-367-384Gly] | decorated mitochondria | normalized mitochondrial aspect ratio | mitochondrial hyper-elongation | without altering Mfn2 GTPase activity | did not correct mitochondrial pathology | mitochondrial clumping induced
